Experiments:
human V1a receptor = target: T1, human V1a receptor (Homo sapiens, UniProt P37288); assay: Cellular in vitro assay for determining the vasopressin receptor activity (aequorin luminescence, antagonism of [Arg8]-vasopressin), hV1a; type: cell-based; details: CHO cell line transfected with the human V1a receptor; agonist [Arg8]-vasopressin
T1 construct: expressed in transfected cells; host or cells: CHO K1 (ATCC), constitutively expressing a modified aequorin
From the text: (§1) B-1. Cellular In Vitro Assay for Determining the Vasopressin Receptor Activity
(§2) The identification of agonists and antagonists of the V1a and V2 vasopressin receptors from humans and rats and also the quantification of the activity of the substances described here took place using recombinant cell lines. These cells derive originally from a hamster ovary epithelial cell (Chinese Hamster Ovary, CHO K1, ATCC: American Type Culture Collection, Manassas, Va. 20108, USA). The test cell lines constitutively express a modified form of the calcium-sensitive photoprotein aequorin, which, after reconstitution with the cofactor coelenterazine, emits light when there are increases in the free calcium concentration (Rizzuto R., Simpson A. W., Brini M., Pozzan T.; Nature 358 (1992) 325-327). In addition, the cells are stably transfected with the human or rat V1a or V2 receptors. In the case of the Gs-coupling V2 receptors, the cells are stably transfected with a further gene, which codes for the promiscuous Gα16 protein (Amatruda T. T., Steele D. A., Slepak V. Z., Simon M. I., Proc. Nat. Acad. Sci. USA 88 (1991), 5587-5591), either independently or as a fusion gene. The resulting vasopressin receptor test cells react to stimulation of the recombinantly expressed vasopressin receptors by intracellular release of calcium ions, which can be quantified by the resulting aequorin luminescence using a suitable luminometer (Milligan G., Marshall F., Rees S., Trends in Pharmaco. Sci. 17 (1996) 235-237).
(§3) On the day before the assay, the cells are plated out in culture medium (DMEM, 10% FCS, 2 mM glutamine, 10 mM HEPES) in 384-well microtiter plates and kept in a cell incubator (96% humidity, 5% v/v carbon dioxide, 37° C.). On the day of the assay, the culture medium is replaced by a Tyrode solution (140 mM sodium chloride, 5 mM potassium chloride, 1 mM magnesium chloride, 2 mM calcium chloride, 20 mM glucose, 20 mM HEPES), which additionally contains the cofactor coelenterazine (50 μM), and the microtiter plate is then incubated for a further 3-4 hours. The test substances in various concentrations are placed for 10 to 20 minutes in the wells of the microtiter plate before the agonist [Arg8]-vasopressin is added, and the resulting light signal is measured immediately in the luminometer. The IC50 values are calculated using the GraphPad PRISM computer program (Version 3.02).
(§4) The table below lists representative IC50 values for the compounds of the invention on the cell line transfected with the human V1a or V2 receptor: […]

human V2 receptor = target: T2, human V2 receptor (Homo sapiens, UniProt P30518); assay: Cellular in vitro assay for determining the vasopressin receptor activity (aequorin luminescence, antagonism of [Arg8]-vasopressin), hV2; type: cell-based; details: CHO cell line transfected with the human V2 receptor (and Gα16); agonist [Arg8]-vasopressin
T2 construct: Gα16 (possible fusion partner; the text leaves open whether it was fused or expressed separately); expressed in transfected cells; host or cells: CHO K1 (ATCC), constitutively expressing a modified aequorin and co-transfected with Gα16
T2 sequence (P30518 whole entry, the tested form may be a part): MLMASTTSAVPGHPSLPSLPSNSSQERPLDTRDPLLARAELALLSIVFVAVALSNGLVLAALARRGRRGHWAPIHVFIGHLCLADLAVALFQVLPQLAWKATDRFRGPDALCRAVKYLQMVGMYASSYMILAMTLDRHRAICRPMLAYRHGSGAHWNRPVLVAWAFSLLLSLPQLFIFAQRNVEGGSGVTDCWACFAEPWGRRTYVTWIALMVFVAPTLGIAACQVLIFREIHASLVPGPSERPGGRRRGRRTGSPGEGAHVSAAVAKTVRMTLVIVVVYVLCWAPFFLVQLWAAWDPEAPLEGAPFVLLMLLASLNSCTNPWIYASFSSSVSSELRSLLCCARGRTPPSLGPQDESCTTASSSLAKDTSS
From the text: as §1, §2, §3, §4

T1 sequence (P37288 whole entry): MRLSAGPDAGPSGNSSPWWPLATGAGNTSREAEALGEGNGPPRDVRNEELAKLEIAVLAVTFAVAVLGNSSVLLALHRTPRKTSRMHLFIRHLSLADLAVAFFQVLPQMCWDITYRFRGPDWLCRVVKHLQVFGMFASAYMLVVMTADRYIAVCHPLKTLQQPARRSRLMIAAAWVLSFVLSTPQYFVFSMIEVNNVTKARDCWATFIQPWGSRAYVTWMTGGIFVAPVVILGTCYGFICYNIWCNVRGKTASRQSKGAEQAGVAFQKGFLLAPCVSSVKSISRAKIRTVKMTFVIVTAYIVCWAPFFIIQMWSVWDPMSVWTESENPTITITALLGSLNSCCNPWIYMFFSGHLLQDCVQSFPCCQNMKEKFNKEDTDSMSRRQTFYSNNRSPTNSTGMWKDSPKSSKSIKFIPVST

Structure (SMILES) | IC50 (human V1a receptor) [nM] | IC50 (human V2 receptor) [nM]
C=CCn1c(-c2ccc(Cl)cc2)nn(S(=O)(=O)c2ccc(C(=O)NC(C)(C)C)cc2OC)c1=O [Example 1, N-tert-Butyl-4-{[3-(4-chlorophenyl)-5-oxo-4-prop-2-en-1-yl-4,5-dihydro-1H-1,2,4-triazol-1-yl]sulphonyl}-3-methoxybenzenecarboxamide] | 5500 | 3
COc1cc(C(=O)NC(C)(C)C)ccc1S(=O)(=O)n1nc(-c2ccc(Cl)cc2)n(C2CC2)c1=O [Example 2] | 3700 | 3
COc1cc(C(=O)NC(C)(C)C)ccc1S(=O)(=O)n1nc(OC(C)C)n(C2CC2)c1=O [Example 3] | > 25000 | 13
COc1cc(C(=O)NC(C)(C)C)ccc1S(=O)(=O)n1nc(N(C)C)n(C2CC2)c1=O [Example 7] | > 25000 | 7
COc1ccc(C(C)=O)cc1S(=O)(=O)n1nc(-c2ccc(Cl)cc2)n(C2CC2)c1=O [Example 13] | 3500 | 290
COc1cc(C(=O)NC(C)(C)C)ccc1S(=O)(=O)n1nc(-c2ccc(Cl)cc2)[nH]c1=O [Example 14, N-tert-Butyl-4-{[3-(4-chlorophenyl)-5-oxo-4,5-dihydro-1H-1,2,4-triazol-1-yl]sulphonyl}-3-methoxybenzenecarboxamide] | > 25000 | 9
CC(C)(C)NC(=O)c1ccc(S(=O)(=O)n2nc(-c3ccc(Cl)cc3)n(C3CC3)c2=O)cc1 [Example 17, N-tert-Butyl-4-{[3-(4-chlorophenyl)-4-cyclopropyl-5-oxo-4,5-dihydro-1H-1,2,4-triazol-1-yl]sulphonyl}benzenecarboxamide] | 7100 | 4
COc1cc(C(=O)NC(C)(C)C)ccc1Cn1nc(-c2ccc(Cl)cc2)n(C2CC2)c1=O [Example 20, N-tert-Butyl-4-{[3-(4-chlorophenyl)-4-cyclopropyl-5-oxo-4,5-dihydro-1H-1,2,4-triazol-1-yl]methyl}-3-methoxybenzenecarboxamide] | 15200 | 4
COc1cc(Cn2nc(-c3ccc(Cl)cc3)n(C3CC3)c2=O)ccc1C(=O)NC(C)(C)C [Example 22, N-tert-Butyl-4-{[3-(4-chlorophenyl)-4-cyclopropyl-5-oxo-4,5-dihydro-1H-1,2,4-triazol-1-yl]methyl}-2-methoxybenzamide] | 870 | 220
CC(C)(C)NC(=O)c1ccc(Cn2nc(-c3ccc(Cl)cc3)n(C3CC3)c2=O)c(Cl)c1 [Example 27, N-tert-Butyl-3-chloro-4-{[3-(4-chlorophenyl)-4-cyclopropyl-5-oxo-4,5-dihydro-1H-1,2,4-triazol-1-yl]methyl}benzamide] | 4200 | 27

From patent publication US8859601B2, “Substituted benzyl and phenylsulfonyl triazolones, and use thereof” (Bayer Intellectual Property GmbH, priority 2008, dated 2014)
